Like-named read-outs stand apart in the source and are kept apart here.
Assays:
Experiment in all cases: KinomeScan kinase panel, single concentration 10 µM
Type in all cases: binding
KinomeScan kinase panel [1] = target: T1, KinomeScan kinase panel (Homo sapiens, UniProt P00519, E255K); settings: 10 µM, read-out: score (%)
T1 construct: purchased DiscoveRx (KinomeScan)

KinomeScan kinase panel [2] = target: T2, KinomeScan kinase panel (Homo sapiens, UniProt P11309); settings: PIM1, 10 µM; read-out: score (%)
T2 construct: purchased DiscoveRx (KinomeScan)

KinomeScan kinase panel [3] = target: T3, KinomeScan kinase panel (Homo sapiens, UniProt P11362); settings: FGFR1, 10 µM; read-out: score (%)
T3 construct: purchased DiscoveRx (KinomeScan)

KinomeScan kinase panel [4] = target: T4, KinomeScan kinase panel (Homo sapiens, UniProt P17948); settings: FLT1, 10 µM; read-out: score (%)
T4 construct: purchased DiscoveRx (KinomeScan)

KinomeScan kinase panel [5] = target: T5, KinomeScan kinase panel (Homo sapiens, UniProt P43403); settings: kinase ZAP70; 10 µM; read-out: score (%)
T5 construct: purchased DiscoveRx (KinomeScan)
T5 sequence (P43403 1-619): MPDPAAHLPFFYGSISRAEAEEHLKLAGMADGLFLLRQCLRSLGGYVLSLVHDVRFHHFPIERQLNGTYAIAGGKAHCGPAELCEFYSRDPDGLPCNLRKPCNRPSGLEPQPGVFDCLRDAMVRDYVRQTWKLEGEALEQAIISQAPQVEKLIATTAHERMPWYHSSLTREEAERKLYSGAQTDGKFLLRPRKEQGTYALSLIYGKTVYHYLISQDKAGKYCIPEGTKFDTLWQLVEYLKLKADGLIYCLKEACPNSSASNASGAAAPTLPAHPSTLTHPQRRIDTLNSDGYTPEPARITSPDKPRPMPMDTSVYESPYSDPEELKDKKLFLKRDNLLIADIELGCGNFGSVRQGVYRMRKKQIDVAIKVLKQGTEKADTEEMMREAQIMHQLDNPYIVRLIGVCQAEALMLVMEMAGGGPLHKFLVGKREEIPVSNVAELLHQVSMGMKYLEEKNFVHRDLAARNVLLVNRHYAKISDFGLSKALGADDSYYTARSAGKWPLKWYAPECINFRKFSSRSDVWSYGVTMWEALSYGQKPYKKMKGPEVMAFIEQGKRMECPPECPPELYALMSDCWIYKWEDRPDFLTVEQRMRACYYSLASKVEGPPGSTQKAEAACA

KinomeScan kinase panel [6] = target: T6, KinomeScan kinase panel (Homo sapiens, UniProt Q02779); settings: MLK2, 10 µM; read-out: score (%)
T6 construct: purchased DiscoveRx (KinomeScan)

KinomeScan kinase panel [7] = target: T7, KinomeScan kinase panel (Homo sapiens, UniProt Q13188); settings: MST2, 10 µM; read-out: score (%)
T7 construct: purchased DiscoveRx (KinomeScan)
T7 sequence (Q13188 1-491): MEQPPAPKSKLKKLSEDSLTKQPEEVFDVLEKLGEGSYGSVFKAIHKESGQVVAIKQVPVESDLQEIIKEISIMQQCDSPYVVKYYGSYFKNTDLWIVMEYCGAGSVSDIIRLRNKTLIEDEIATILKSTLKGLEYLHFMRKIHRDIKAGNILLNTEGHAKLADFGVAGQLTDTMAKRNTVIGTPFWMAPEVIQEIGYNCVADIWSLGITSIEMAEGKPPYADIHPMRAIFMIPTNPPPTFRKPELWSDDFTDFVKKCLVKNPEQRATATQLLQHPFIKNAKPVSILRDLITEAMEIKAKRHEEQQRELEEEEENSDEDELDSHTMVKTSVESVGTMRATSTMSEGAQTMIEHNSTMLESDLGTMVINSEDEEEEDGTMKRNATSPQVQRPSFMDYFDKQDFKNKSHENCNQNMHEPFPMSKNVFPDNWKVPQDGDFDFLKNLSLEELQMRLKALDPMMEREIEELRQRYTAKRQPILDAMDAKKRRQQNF

KinomeScan kinase panel [8] = target: T8, KinomeScan kinase panel (Homo sapiens, UniProt Q13976); settings: read-out: score (%)
T8 construct: purchased DiscoveRx (KinomeScan)
T8 sequence (Q13976 1-671): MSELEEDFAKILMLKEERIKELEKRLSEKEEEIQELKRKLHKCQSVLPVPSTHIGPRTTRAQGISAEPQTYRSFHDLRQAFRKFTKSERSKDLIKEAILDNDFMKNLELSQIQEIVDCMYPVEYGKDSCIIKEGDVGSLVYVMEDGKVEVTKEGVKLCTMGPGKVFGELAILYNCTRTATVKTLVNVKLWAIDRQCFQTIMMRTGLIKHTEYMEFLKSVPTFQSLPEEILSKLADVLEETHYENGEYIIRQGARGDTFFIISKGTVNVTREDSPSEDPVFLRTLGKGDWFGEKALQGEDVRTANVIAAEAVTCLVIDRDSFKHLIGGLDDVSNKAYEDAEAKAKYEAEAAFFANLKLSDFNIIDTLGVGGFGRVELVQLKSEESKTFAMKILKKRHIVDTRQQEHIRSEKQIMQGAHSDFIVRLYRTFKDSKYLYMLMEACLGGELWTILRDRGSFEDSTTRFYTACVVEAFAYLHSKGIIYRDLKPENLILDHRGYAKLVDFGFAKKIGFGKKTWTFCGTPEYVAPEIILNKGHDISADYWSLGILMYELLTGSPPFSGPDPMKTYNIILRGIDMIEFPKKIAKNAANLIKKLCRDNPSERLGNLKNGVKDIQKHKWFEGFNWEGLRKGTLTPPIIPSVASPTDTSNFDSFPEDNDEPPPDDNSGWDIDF

KinomeScan kinase panel [9] = target: T9, KinomeScan kinase panel (Homo sapiens, UniProt Q8TDR2); settings: read-out: score (%)
T9 construct: purchased DiscoveRx (KinomeScan)

KinomeScan kinase panel [10] = target: T10, KinomeScan kinase panel (Homo sapiens, UniProt Q9NYL2); settings: kinase ZAK; 10 µM; read-out: score (%)
T10 construct: purchased DiscoveRx (KinomeScan)

KinomeScan kinase panel [11] = target: T11, KinomeScan kinase panel (Homo sapiens, UniProt Q9UEE5); settings: DRAK1, 10 µM; read-out: score (%)
T11 construct: purchased DiscoveRx (KinomeScan)
T11 sequence (Q9UEE5 1-414): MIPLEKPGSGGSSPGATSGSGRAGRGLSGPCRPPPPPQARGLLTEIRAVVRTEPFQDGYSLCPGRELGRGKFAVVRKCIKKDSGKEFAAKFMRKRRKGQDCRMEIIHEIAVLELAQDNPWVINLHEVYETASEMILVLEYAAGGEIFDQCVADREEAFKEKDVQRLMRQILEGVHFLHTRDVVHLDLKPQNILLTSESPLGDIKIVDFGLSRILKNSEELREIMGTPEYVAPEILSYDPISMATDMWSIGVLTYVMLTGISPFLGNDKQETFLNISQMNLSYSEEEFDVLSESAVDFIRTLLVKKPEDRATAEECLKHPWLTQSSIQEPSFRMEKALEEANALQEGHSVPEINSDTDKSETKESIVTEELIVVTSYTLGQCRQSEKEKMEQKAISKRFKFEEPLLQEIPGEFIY

T3 sequence (P11362 22-822): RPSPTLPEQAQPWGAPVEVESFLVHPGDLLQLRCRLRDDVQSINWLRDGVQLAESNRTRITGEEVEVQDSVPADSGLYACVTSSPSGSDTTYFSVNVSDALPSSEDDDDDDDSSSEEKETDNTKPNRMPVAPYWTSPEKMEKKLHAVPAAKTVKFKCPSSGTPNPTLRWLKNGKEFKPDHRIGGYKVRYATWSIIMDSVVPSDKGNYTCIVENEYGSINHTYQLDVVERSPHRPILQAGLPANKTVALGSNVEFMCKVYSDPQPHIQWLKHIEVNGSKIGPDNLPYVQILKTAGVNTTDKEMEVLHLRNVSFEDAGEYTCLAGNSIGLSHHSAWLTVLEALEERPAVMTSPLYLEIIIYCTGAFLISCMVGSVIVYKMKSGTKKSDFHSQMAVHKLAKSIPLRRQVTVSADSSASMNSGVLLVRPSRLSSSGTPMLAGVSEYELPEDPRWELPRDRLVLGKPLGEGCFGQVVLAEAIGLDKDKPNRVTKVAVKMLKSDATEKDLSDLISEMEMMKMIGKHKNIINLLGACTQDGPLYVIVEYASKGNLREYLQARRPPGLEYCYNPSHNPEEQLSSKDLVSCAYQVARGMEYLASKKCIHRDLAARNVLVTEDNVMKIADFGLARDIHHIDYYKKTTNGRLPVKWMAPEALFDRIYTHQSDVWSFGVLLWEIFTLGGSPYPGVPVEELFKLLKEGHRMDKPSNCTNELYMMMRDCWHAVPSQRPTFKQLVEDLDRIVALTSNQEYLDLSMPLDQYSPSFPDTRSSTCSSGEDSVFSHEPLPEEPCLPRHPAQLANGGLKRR
T6 sequence (Q02779 whole entry): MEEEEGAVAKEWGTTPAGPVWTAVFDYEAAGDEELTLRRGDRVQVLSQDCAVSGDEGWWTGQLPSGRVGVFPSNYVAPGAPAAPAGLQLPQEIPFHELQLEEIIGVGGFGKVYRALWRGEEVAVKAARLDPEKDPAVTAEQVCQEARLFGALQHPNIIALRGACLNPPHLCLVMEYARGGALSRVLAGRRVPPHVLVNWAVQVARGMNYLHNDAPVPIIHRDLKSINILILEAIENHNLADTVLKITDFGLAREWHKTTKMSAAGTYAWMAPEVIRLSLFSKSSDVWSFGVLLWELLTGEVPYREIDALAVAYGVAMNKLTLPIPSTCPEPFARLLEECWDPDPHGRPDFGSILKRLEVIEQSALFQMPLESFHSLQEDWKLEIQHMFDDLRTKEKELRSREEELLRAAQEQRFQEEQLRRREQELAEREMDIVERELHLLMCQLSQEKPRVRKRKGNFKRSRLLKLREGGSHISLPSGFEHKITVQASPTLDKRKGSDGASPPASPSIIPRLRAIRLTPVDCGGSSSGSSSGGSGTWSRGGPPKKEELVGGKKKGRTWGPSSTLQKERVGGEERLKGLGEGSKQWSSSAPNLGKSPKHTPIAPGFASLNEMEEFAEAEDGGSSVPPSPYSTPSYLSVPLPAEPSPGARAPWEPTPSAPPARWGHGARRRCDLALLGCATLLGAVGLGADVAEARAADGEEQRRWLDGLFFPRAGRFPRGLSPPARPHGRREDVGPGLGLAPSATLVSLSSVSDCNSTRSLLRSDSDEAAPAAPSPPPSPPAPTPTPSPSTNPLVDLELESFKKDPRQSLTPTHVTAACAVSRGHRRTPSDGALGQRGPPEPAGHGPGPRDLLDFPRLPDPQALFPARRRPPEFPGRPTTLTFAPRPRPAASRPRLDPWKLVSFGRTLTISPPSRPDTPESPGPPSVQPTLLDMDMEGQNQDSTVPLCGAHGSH
T1 sequence (P00519 whole entry E255K): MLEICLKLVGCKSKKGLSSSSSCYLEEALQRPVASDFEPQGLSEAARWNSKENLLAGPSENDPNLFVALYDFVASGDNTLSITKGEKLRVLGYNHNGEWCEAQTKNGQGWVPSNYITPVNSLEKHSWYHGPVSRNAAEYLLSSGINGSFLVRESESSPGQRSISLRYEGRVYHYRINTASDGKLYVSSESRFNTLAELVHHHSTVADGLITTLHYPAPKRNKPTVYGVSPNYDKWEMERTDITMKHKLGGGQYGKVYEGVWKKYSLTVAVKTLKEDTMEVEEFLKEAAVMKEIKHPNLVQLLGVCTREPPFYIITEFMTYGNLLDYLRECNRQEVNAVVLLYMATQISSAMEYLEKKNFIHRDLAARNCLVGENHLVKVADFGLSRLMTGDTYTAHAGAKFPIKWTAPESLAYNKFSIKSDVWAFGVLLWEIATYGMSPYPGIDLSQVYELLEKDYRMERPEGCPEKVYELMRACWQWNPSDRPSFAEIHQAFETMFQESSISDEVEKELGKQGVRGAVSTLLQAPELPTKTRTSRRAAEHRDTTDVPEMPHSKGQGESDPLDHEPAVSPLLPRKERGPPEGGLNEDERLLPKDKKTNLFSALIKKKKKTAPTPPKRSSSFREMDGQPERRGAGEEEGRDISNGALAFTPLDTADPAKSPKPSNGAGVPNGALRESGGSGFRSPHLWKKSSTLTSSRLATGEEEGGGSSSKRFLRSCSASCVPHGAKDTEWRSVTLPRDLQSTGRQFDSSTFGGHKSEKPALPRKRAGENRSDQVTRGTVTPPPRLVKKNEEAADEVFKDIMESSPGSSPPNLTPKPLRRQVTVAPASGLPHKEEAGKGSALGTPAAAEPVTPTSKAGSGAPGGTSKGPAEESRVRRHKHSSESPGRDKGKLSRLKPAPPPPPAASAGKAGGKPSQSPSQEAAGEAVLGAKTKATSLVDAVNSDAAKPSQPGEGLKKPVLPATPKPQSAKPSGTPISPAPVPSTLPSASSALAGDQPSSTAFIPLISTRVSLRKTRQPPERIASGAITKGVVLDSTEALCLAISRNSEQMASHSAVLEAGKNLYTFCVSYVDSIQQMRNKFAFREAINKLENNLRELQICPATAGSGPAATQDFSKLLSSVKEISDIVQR
T9 sequence (Q8TDR2 whole entry): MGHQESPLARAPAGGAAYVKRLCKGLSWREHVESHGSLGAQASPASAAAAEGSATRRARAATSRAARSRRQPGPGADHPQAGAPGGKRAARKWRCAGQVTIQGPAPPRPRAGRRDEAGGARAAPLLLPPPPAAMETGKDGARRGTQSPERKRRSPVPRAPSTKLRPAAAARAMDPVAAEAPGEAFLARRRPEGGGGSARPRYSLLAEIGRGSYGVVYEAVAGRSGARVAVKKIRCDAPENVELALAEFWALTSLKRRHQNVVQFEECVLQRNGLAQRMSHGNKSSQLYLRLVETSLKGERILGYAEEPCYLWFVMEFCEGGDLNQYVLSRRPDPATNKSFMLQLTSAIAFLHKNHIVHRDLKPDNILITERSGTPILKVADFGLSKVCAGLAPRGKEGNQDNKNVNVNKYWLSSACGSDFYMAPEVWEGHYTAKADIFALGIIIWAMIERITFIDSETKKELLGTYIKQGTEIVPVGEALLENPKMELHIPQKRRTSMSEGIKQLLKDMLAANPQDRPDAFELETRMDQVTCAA
T10 sequence (Q9NYL2 whole entry): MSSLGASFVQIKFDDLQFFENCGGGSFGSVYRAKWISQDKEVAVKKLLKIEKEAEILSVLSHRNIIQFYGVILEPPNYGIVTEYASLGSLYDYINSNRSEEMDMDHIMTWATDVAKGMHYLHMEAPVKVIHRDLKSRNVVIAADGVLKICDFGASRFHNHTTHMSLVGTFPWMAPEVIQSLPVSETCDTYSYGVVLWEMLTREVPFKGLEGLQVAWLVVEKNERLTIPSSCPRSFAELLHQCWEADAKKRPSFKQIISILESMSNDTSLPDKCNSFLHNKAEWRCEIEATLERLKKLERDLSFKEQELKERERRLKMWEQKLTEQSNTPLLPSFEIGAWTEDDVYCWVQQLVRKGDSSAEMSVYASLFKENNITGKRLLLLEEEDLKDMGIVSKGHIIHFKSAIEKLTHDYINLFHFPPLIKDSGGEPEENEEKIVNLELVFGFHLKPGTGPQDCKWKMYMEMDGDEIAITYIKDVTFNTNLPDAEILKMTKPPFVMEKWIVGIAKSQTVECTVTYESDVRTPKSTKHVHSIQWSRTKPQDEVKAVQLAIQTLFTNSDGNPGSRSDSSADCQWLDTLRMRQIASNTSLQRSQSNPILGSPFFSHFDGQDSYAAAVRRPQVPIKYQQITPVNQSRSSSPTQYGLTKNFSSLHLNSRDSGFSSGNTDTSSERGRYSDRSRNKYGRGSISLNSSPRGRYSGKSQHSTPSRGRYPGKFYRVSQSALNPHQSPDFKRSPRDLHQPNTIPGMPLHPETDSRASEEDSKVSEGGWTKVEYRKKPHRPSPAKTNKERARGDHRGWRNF
T2 sequence (P11309 whole entry): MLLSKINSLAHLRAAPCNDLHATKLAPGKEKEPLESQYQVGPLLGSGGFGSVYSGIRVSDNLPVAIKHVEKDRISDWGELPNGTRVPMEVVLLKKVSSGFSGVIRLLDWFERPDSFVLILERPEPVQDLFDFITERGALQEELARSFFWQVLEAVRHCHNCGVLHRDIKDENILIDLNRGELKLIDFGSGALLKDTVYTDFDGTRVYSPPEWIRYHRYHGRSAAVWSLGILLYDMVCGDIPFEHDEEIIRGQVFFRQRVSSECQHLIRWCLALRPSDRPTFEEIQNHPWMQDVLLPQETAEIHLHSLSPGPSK

Compound	remaining binding at 10 µM (KinomeScan kinase panel [1]; ABL1(E255K)) [%]	remaining binding at 10 µM (KinomeScan kinase panel [2]) [%]	remaining binding at 10 µM (KinomeScan kinase panel [3]) [%]	remaining binding at 10 µM (KinomeScan kinase panel [4]) [%]	remaining binding at 10 µM (KinomeScan kinase panel [5]) [%]	remaining binding at 10 µM (KinomeScan kinase panel [6]) [%]	remaining binding at 10 µM (KinomeScan kinase panel [7]) [%]	remaining binding at 10 µM (KinomeScan kinase panel [8]; PRKG1, 10 µM) [%]	remaining binding at 10 µM (KinomeScan kinase panel [9]; kinase STK35, 10 µM) [%]	remaining binding at 10 µM (KinomeScan kinase panel [10]) [%]	remaining binding at 10 µM (KinomeScan kinase panel [11]) [%]	remaining binding at 10 µM (KinomeScan kinase panel [1]; ABL1(E255K)-phosphorylated) [%]	remaining binding at 10 µM (KinomeScan kinase panel [8]; kinase PRKG1, 10 µM) [%]	remaining binding at 10 µM (KinomeScan kinase panel [9]; STK35, 10 µM) [%]
CCN1CCN(Cc2ccc(NC(=O)c3ccc(C)c(NC(=O)c4cncc(-c5cccs5)c4)c3)cc2C(F)(F)F)CC1 [ALW-II-41-27]	7.2	> 30	2.2	1	> 30	> 30	> 30	> 30	21	3	> 30	–	–	–
CCN1CCN(Cc2ccc(NC(=O)c3ccc(C)c(C#Cc4cccnc4)c3)cc2C(F)(F)F)CC1 [XMD15-44]	–	84	0.25	0.5	62	> 30	> 30	–	1.6	0.4	> 30	0.05	100	–
CCN1CCN(Cc2ccc(NC(=O)c3ccc(C)c(/C=C/c4cnc5[nH]ccc5c4Cl)c3)cc2C(F)(F)F)CC1 [HG-6-63-01, (E)-3-(2-(4-chloro-1H-pyrrolo[2,3-b]pyridin-5-yl)vinyl)-N-(4-((4-ethylpiperazin-1-yl)methyl)-3-(trifluoromethyl)phenyl)-4-methylbenzamide]	1.3	> 30	0.7	0.2	> 30	20	10	> 30	–	0.35	0.35	–	–	> 30

Source: article PMC4457528, “Identification of Novel Small Molecule Inhibitors of Oncogenic RET Kinase” (PLoS ONE, 2015)
